Reference: ChEMBL document CHEMBL5634117 (Eur J Med Chem, 2023)
The source made the active and inactive calls. The calls are words filed in the database; no cut-off is given here.

Assays:
K562 [1] = test: Induction of autophagy in human K562 cells assessed as increase in beclin-1 level at 1.28 uM measured after 24 hrs by Western blotting analysis; format: functional, cell-based
[2] = Cytotoxicity against African green monkey Vero cells assessed as decrease in number of viable cells at 30 uM measured after 48 hrs by SRB assay relative to control; format: toxicity, cell-based; settings: chlorocebus sabaeus
K562 [3] = test: Induction of cell cycle arrest in human K562 cells assessed as accumulation of cells at G2/M phase at 2.56 uM measured after 24 hrs by PI staining based flow cytometry analysis (reference value: 25.62%); format: functional
K562 [4] = test: Induction of cell cycle arrest in human K562 cells assessed as accumulation of cells at S phase at 2.56 uM measured after 24 hrs by PI staining based flow cytometry analysis (reference value: 24.75%); format: functional
K562 [5] = test: Induction of cell cycle arrest in human K562 cells assessed as accumulation of cells at S phase at 1.28 uM measured after 24 hrs by PI staining based flow cytometry analysis (reference value: 21.74%); format: functional
K562 [6] = test: Induction of cell cycle arrest in human K562 cells assessed as accumulation of cells at S phase at 2.56 uM measured after 24 hrs by PI staining based flow cytometry analysis (reference value: 21.74%); format: functional
K562 [7] = test: Induction of cell cycle arrest in human K562 cells assessed as accumulation of cells at G2/M phase at 5 uM measured after 24 hrs by PI staining based flow cytometry analysis (reference value: 29.44%); format: functional
K562 [8] = test: Induction of cell cycle arrest in human K562 cells assessed as accumulation of cells at S phase at 2.5 uM measured after 24 hrs by PI staining based flow cytometry analysis (reference value: 20.42%); format: functional
K562 [9] = test: Induction of apoptosis in human K562 cells assessed as late apoptotic cells at 1.25 uM incubated for 24 hrs by annexinV and propidium iodide staining based flow cytometry analysis (reference value: 1.34%); format: functional

CC(C)(C)n1cc(-c2ccnc(NCCCNS(=O)(=O)c3ccc(Cl)cc3)c2)c(-c2cccc(O)c2)n1
Activity (K562 [1]): Active
Activity [2]: 53%
Activity (K562 [3]): 94.29%
Activity (K562 [4]): 4.89%

O=C1c2ccccc2-c2n[nH]c3cccc1c23
Activity (K562 [5]): 16.61%
Activity (K562 [6]): 21.55%
Activity (K562 [7]): 47.08%
Activity (K562 [8]): 19.27%
Activity (K562 [9]): 1.47%
